Measurements as given in patent US20230270797A1, “NOVEL STRAIN OF THE SPECIES LACTICASEIBADLLUS RHAMNOSUS, COMPOSITIONS THEREOF AND USE THEREOF IN THE TREATMENT OF GENITOURINARY INFECTIONS” (URIACH ITALY S.R.L., priority 2020, published 2023).

Test: Antioxidant activity, linoleic acid peroxidation (ferric thiocyanate)
Type: biochemical
Details: cell free supernatant; linoleic acid 50 mM; negative control (MRS broth) Abs500 nm = 2
Experimental: Oxidation was measured by determining ferric thiocyanate. Butylated hydroxytoluene (BHT) and α-tocopherol (1 mg/mL) were used as positive controls. MRS broth was used as negative control. […] The analysis was carried out in triplicate.

Cc1c(C)c2c(c(C)c1O)CC[C@@](C)(CCC[C@H](C)CCC[C@H](C)CCCC(C)C)O2 [positive control, α-tocopherol]
Antioxidant activity, absorbance values at 500nm: positive control: Abs500 nm = 0.25)
